Data taken from patent publication US7348315B2, “Methods of treating heart failure with modified ATP, ADP and AMP compounds” (priority 1995, dated 2008).

Tests used:
[1] = system: cardiac ventricular myocytes; experiment: Contractile amplitude of cultured cardiac ventricular myocytes (optico-video motion detection); type: cell-based, chick; conditions: for ability to stimulate an increase in contractile amplitude: FIGS. 1a-1d; for desensitization of the positive inotropic response to ATP, ADPβS and UTP after pre-exposure: pre-exposure 100 μM, 60 minutes (2-methylthio ATP) or three hours (UTP); for maximal % increase in contractile amplitude: ventricular myocytes (chick embryo 14 days in ovo / adult rat), mean ± SE
Description: […] Sen, L., Liang, B. T., Colucci, W. S., Smith, T. W., Circ. Res. 67:1182-1192 (1990), modified to include the use of a high-speed peristaltic pump (Masterflex from Cole-Palmer/Spectrum), choice of lots of collagenase, hyaluronidase and protease that give the highest proportion of rod-shaped myocytes, inclusion of bovine serum albumin containing various enzymes, and pre-plating with laminin-coated plates or glass coverslips (for contractility measurement) to eliminate damaged, rounded up myocytes. Specifically, hearts from Sprague-Dawley rats were perfused in a retrograde manner for 5 minutes in Krebs-Henseleit (KH) bicarbonate buffer containing 118 mM NaCl, 4.6 mM KCl, 1.2 mM MgSO4, 1.25 mM CaCl2, 1.2 mM KH2PO4, 25 mM NaHCO3, and 11 mM glucose, gassed with 95% O2/5% CO2/at pH 7.4 (37° C., and an osmolality of 287 mosm/liter). The perfusion buffer was changed to nominally Ca^2+-free KH buffer for 5 min to arrest spontaneous beating. The heart was then perfused with the Ca^2+-free KH buffer containing 0.05% collagenase (Worthington) and 0.03% hyaluronidase (Sigma Chem. Co., St. Louis, Mo.) for 20 min. After removing the atria and the great vessels, the ventricular tissue was finely minced in the same collagenase/hyaluronidase buffer described above except that trypsin (0.02 mg/ml, Sigma) and deoxyribonuclease (0.02 mg/ml, Sigma) was also added. The minced tissue was further incubated in this buffer at 37° C. with shaking to facilitate dissociation of individual ventricular myocytes. The dissociated cells containing some damaged cells were filtered and layered twice over a 6% bovine serum albumin gradient. The rod-shaped healthy heart cells sedimented more easily than the round damaged cells. After the second sedimentation through the 6% BSA gradient, the final pellet contains more than 90% rod-shaped heart cells.
Ventricular myocytes were cultured from chick embryos 14 days in ovo according to known procedures. Briefly, isolated ventricular myocytes from chick embryos 14 in ovo were prepared in calcium- and magnesium-free Hanks' balanced salt sodium (HBSS) containing 0.025% trypsin (GIBCO, Grand Island, N.Y.). After neutralization of trypsin medium containing horse serum and HBSS, cells were centrifuged and resuspended in culture medium containing 6% fetal bovine serum, 40% Medium 199 (GIBCO), 0.1% penicillin/streptomycin, and a salt solution. The final concentrations in the culture medium (in mmol/L) were Na 142, K 3.3, Mg 0.7, Ca 1.4, Cl 130, HCO3 16.4, and glucose 5.5. Cells were plated at a density of 400,000 cell per ml and cultivated in a humidified 5% CO2-95% […]
The cell isolation procedure was generally that of Kelly, R. A., Eid, H., Kramer, B. K., O'Neill, M., Liang, B. T., Reers, M., Smith, T. W., J. Clin. Invest. 86:1164-1171 (1990), […] Cells became confluent on day 3 in culture and contractility measurement was carried out on that day.
Measurement of contractile amplitude in cultured ventricular cells was carried out generally according to the methods of Xu, D., Kong, H., Liang, B. T., Circ. Res. 70:56-65 (1992), and Barry, W. H., and Smith, T. W., J. Physiol. (Lond) 325:243-260 (1982). […]

working rat heart = experiment: Intact working rat heart; conditions: FIG. 11
Protocol: For the working heart model, a column of KHS buffer produced a constant hydrostatic pressure of 65 mmHg (for rat) or 55 mmHg (for mice). The opening of the pulmonary vein was connected via a PE-90 (for rat) or PE-50 (for mice) catheter to a reservoir of KHS buffer that maintained a “venous return” flow into the left atrium of about 12 mL/min (rat) or 5 mL/min (mice) under the resting condition. The venous return was maintained by a constant level of hydrostatic pressure (7-8 mm Hg) yielding a steady rate of venous return. The entering KHS buffer was then switched from retrograde to antegrade perfusion and produced a work-performing heart preparation. […] Aortic flow was the amount of perfusate exiting the aortic cannula measured in […]. […]
The pressure recordings were channeled from amplifiers which had been precalibrated by a transducer simulator/calibrator (Ken Scientific Corp., Litchfield, Conn.). […] Data were analyzed by computer software (WorkBench for Windows+, Kent Scientific Corp.) designed for an IBM-compatible computer (Dell). […] Data points under each basal condition and during infusion of each drug concentration were summarized as means±SE, and the statistical differences were analyzed by one-way ANOVA with post-test comparison and t test.

isolated mouse heart = experiment: Work-performing isolated mouse heart; conditions: 100 nM, vs basal; for increase in +dP/dt (cardiac muscle contractility) / increase in cardiac output (C.O.) / increase in −dP/dt (diastolic relaxation): P less than 0.05, paired t test
Protocol: perfusion in the isolated heart was carried out using the work-performing model described as follows: For the working heart model, a column of KHS buffer produced a constant hydrostatic pressure of 65 mmHg (for rat) or 55 mmHg (for mice). The opening of the pulmonary vein was connected via a PE-90 (for rat) or PE-50 (for mice) catheter to a reservoir of KHS buffer that maintained a “venous return” flow into the left atrium of about 12 mL/min (rat) or 5 mL/min (mice) under the resting condition. The venous return was maintained by a constant level of hydrostatic pressure (7-8 mm Hg) yielding a steady rate of venous return. The entering KHS buffer was then switched from retrograde to antegrade perfusion and produced a work-performing heart preparation. The perfusate exited the left ventricle through the aorta cannula, which was connected to the aortic column of KHS buffer with a hydrostatic pressure of 55 mmHg (for mice) or 65 mmHg (for rat). Aortic flow was the amount of perfusate exiting the aortic cannula measured in millimeters per minute. Coronary flow, in millimeters per minute, was collected via opening of the pulmonary artery. The sum of aortic flow and coronary flow was the cardiac output. A 23 gauge catheter was inserted into the left ventricle and its distal end is connected to a pressure transducer to record left ventricular pressures and ±dP/dt. The left ventricular developed pressure (LVDP) was the difference between LV systolic and diastolic pressure. A side port of the reservoir allowed direct infusion of beta-adrenergic agonist isoproterenol or P2X receptor agonist 2-[…] into the KHS buffer that entered the left ventricle via the left atrium, which then entered the coronary circulation following ejection of drug-containing perfusate into the aorta. The pressure recordings were channeled from amplifiers which had been precalibrated by a transducer simulator/calibrator (Ken Scientific Corp., Litchfield, Conn.). The signals were then digitized via a PCM-DAS 16S/330 interface board (Computer Boards, Inc. Mansfield, Mass.) which provided a high level of performance with analog input channels and digital channels. Data were analyzed by computer software (WorkBench for Windows+, Kent Scientific Corp.) designed for an IBM-compatible computer (Dell). […] Data acquisition, signal display (LV pressures, ±dP/dt, heart rate), and data analysis programs were run concurrently from the hard drive of the computer. Data points under each basal condition and during infusion of each drug concentration were summarized as means±SE, and the statistical differences were analyzed by one-way ANOVA with post-test comparison and […] and ISO (isoproterenol) were present at 100 nM. Basal represented the baseline values obtained before infusion with the agonists. Date were the means and standard errors of those obtained in 5 rats.

CSc1nc(N)c2ncn([C@@H]3O[C@H](COP(=O)(O)OP(=O)(O)O)[C@@H](O)[C@H]3O)c2n1 [2-methylthio ADP]
effect on basal contractile amplitude (positive inotropic effect) ([1]; myocytes paced at 2 HZ, FIG. 7): pronounced positive inotropic effect

CSc1nc(N)c2ncn([C@@H]3O[C@H](COP(=O)(O)OP(=O)(O)OP(=O)(O)O)[C@@H](O)[C@H]3O)c2n1 [2-methylthio ATP]
ability to stimulate an increase in contractile amplitude [1]: capable of stimulating an increase in contractile amplitude
desensitization of the positive inotropic response to ATP, ADPβS and UTP after pre-exposure [1]: desensitized the positive inotropic response
maximal % increase in contractile amplitude [1]: 54±7%
+dP/dt (index of muscle contractility) (working rat heart): increases
−dP/dt (index of diastolic relaxation) (working rat heart): increases
heart rate (H.R.) (isolated mouse heart): did not change the heart rate
increase in +dP/dt (cardiac muscle contractility) (isolated mouse heart): statistically significant
increase in cardiac output (C.O.) (isolated mouse heart): statistically significant
increase in −dP/dt (diastolic relaxation) (isolated mouse heart): statistically significant

Nc1ncnc2c1ncn2[C@@H]1O[C@H](COP(=O)(O)OP(=O)(O)O)[C@@H](O)[C@H]1O [ADP]
maximal % increase in contractile amplitude [1]: 47.7±10%

Nc1ncnc2c1ncn2[C@@H]1O[C@H](COP(=O)(O)OP(O)(O)=S)[C@@H](O)[C@H]1O [ADPβS]
maximal % increase in contractile amplitude [1]: 76±15%

Nc1ncnc2c1ncn2[C@@H]1O[C@H](COP(=O)(O)O)[C@@H](O)[C@H]1O [AMP]
maximal % increase in contractile amplitude [1]: 9.6±4%

Nc1ncnc2c1ncn2[C@@H]1O[C@H](COP(=O)(O)OP(=O)(O)OP(=O)(O)O)[C@@H](O)[C@H]1O [ATP]
maximal % increase in contractile amplitude [1]: 89.7±9%

Nc1ncnc2c1ncn2[C@@H]1O[C@H](COP(=O)(O)OP(=O)(O)NP(=O)(O)O)[C@@H](O)[C@H]1O [App(NH)p, adenylyl imidodiphospate]
effect on contractile amplitude in presence of adenosine receptor antagonist 8-SPT ([1]; App(NH)p plus 8-sulfophenyltheophylline, FIG. 8): not mediated via the adenosine receptor
effect on basal contractile amplitude (positive inotropic effect) ([1]; FIG. 8): pronounced positive inotropic effect

O=c1ccn([C@@H]2O[C@H](COP(=O)(O)OP(=O)(O)OP(=O)(O)O)[C@@H](O)[C@H]2O)c(=O)[nH]1 [UTP]
ability to stimulate an increase in contractile amplitude [1]: not capable of producing the same effect
desensitization of the positive inotropic response to ATP, ADPβS and UTP after pre-exposure [1]: failed to cause such desensitization
maximal % increase in contractile amplitude [1]: 22±4%

Nc1ncnc2c1ncn2[C@@H]1O[C@H](COP(N)(=O)O)[C@@H](O)[C@H]1O [adenosine 5′monophosphoramidate]
effect on basal contractile amplitude (positive inotropic effect) ([1]; myocytes paced at 2 HZ, FIG. 7): pronounced positive inotropic effect

Nc1ncnc2c1ncn2[C@@H]1O[C@H](CO)[C@@H](O)[C@H]1O [adenosine]
maximal % increase in contractile amplitude [1]: 15±4%

CC(C)NCC(O)c1ccc(O)c(O)c1 (stereo not shown) [isoproterenol]
heart rate (H.R.) (isolated mouse heart): significant stimulation
increase in +dP/dt (cardiac muscle contractility) (isolated mouse heart): statistically significant
increase in cardiac output (C.O.) (isolated mouse heart): statistically significant
increase in −dP/dt (diastolic relaxation) (isolated mouse heart): statistically significant

Nc1ncnc2c1ncn2[C@@H]1O[C@H](COP(=O)(O)CP(=O)(O)OP(=O)(O)O)[C@@H](O)[C@H]1O [α,β-methylene ATP]
ability to stimulate an increase in contractile amplitude [1]: not capable of producing the same effect
maximal % increase in contractile amplitude [1]: −13±5%

adenylyl 5′phosphoramidate
effect on basal contractile amplitude (positive inotropic effect) ([1]; myocytes paced at 2 HZ, FIG. 7): pronounced positive inotropic effect
